Data published in patent US20250281474A1, “PHARMACEUTICAL COMPOSITION FOR TREATING COGNITIVE DECLINE OR FOR TREATING OVERWEIGHTNESS OR OBESITY” (University of the Ryukyus, priority 2021, published 2025).

What was measured:
NL-GF mice = assay: Novel object recognition test, AD model mice (NL-GF); format: in vivo, mouse; conditions: NL-GF mice n=5; CD diet with perampanel 5 mg/kg body weight/day from 8 to 13 weeks of age
Experimental: Mice of CD, HFD, and HFD with PER treatment were handled daily for 5 minutes for 5 days prior to the start of the novel object recognition test. PER means the perampanel, which is an AMPA receptor antagonist. The mice were habituated to a 35 cm square, 25 cm high box for 10 minutes on the first day, and were given 2 identical objects (familiar objects) for 10 minutes on the second day. On the third day, one of the familiar objects was replaced with a novel object of different shape and color (FIG. 2F). […] The search time for each object was measured by offline analysis (47).
NL-GF mice begin to accumulate in the brain of Aβ from 8 weeks of age (Nat. Neurosci. 2014 17,661-4). In this example, the AD model mouse (n=5) was fed a CD diet containing a perampanel at a dose of 5 mg/kg body weight/day from 8 to 13 weeks of age, and the mouse was subjected to a novel object recognition test. In the negative control (n=5), a normal CD diet without perampanel was taken.

[1] = test system: neurospheres established from NL-G-F(−/−) mice; assay: Neurosphere culture from NL-G-F(-/-) mouse hippocampus: Aβ42/Aβ40 EIA and Aβ staining; format: cell-based
Description: Biomarkers of Alzheimer's dementia include the Aβ42/Aβ40 ratio of cerebrospinal fluid (CSF) and plasma levels, phosphorylated tau (P-tau) in threonines 181 and 217, and neurofilament lite (NfL) (Curr Opin Neurol 2021 1 266-274). The Aβ42/Aβ40 ratio is considered to be able to predict Aβ accumulation in PET (Doecke J D et al., Neurology 2020). Hippocampus on 17 to 19 days of NL-G-F(−/−) mouse embryonic life was taken out and cultured by a Neurosphere method by Brewer G J et al. (Nat Protoc 2007 2, 1490-1498), and a supernatant was measured by an EIA method using this culture system. The change in the Aβ42/Aβ40 ratio by the perampanel (50 μM/methyl cellulose 4 μL) was analyzed. In 4 μL of a 0.5 w/v % aqueous solution of methyl cellulose 400, 5×10^4 spheres smaller than 50 μm in diameter were cultured in 50 ml Falcon Flask coated with poly-D-lysine/laminin, and Aβ42 and Aβ40 of the supernatant were measured by EIA method on the second day (FIG. 29A) and the fourth day (FIG. 29B) of culture. The solvent was administered 12 hours after seeding.

ob/ob mice = assay: Immunohistochemical analysis (MAP2, GluA1, GluA2, DCX), ob/ob mice; format: in vivo, mouse; conditions: ob/ob mice with PER
Description: Mouse brains were perfusion-fixed with 4% paraformaldehyde, embedded in paraffin, and cut into 4 micrometer thick sections to be used for immunohistochemical analysis of monoclonal antibodies against DCX (E-6 monoclonal, 1:50, Santa Cruz Biotechnology Inc, Dallas, USA), MAP2ab (AP-20 monoclonal, 1:100, SIGMA-ALDRICH, St. Louis, USA), GluA1 (AB1540 polyclonal, 1:100, EMD Millipore Corp., Burlington, USA), and GluA2 (AB 1768-1 polyclonal, 1:5, EMD Millipore Corp., Burlington, USA).
The immunostained region in each of the expression regions of MAP2, GluA1, and GluA2 was acquired using a ZVI format AxioVision (Carl Zeiss, Germany) microscope (objective lens 20×). Generation of data image processing with image segmentation was performed using machine learning with ZEN Intelliesis software. 1000 or more cells were examined in each group. One-way variance analysis was used for testing variance among the three groups excluding data of 3SD or higher. Then, the following number of samples was used.
Similar to the HFD mouse model, ob/ob mice had reduced dendritic arbors integrity as determined by MAP2 staining (FIG. 12). […] In addition, the maturation of the protrusions of DCX-positive cells progressed by treatment with PER for 12 weeks (FIG. 14).

NMDAR = assay: Ca2+ imaging of hippocampal brain slices, NMDA+glycine application, ob/ob mice; conditions: ob/ob mice, PER administration; p<0.05

## N#Cc1ccccc1-c1cc(-c2ccccn2)cn(-c2ccccc2)c1=O [PER, 3-(2-cyanophenyl)-5-(2-pyridyl)-1-phenyl-1,2-dihydropyridine-2-one]
NL-GF mice
  novel object recognition test: significantly distinguish
[1]; fourth day of culture, formic acid treatment
  Aβ staining of the culture: decrease in Aβ
[1]; perampanel 50 μM/methyl cellulose 4 μL, second and fourth day of culture
  Aβ42/Aβ40 ratio of the culture supernatant (EIA): significantly increased
ob/ob mice
  GluA1 expression in CA1 (immunoreactive regions): restored
  ratio of GluA2/GluA1 (immunoreactive regions): restored
NMDAR
  NMDAR function in all hippocampal subregions: restoration
